Experimental data as given in paper PMC11426312 (Biochemistry, 2024).

Legend:
[1] = biological target: T1, AbHMPK (hydroxymethyl pyrimidine kinase / phosphomethylpyrimidine kinase) (Acinetobacter baumannii, UniProt A0A0J9X285); assay: X-ray crystal structure; format: biochemical
[2] = biological target: T1, AbHMPK (hydroxymethyl pyrimidine kinase / phosphomethylpyrimidine kinase); assay: HPLC and LC-MS/MS of the enzymatic product; format: biochemical

T1 sequence (A0A0J9X285 whole entry): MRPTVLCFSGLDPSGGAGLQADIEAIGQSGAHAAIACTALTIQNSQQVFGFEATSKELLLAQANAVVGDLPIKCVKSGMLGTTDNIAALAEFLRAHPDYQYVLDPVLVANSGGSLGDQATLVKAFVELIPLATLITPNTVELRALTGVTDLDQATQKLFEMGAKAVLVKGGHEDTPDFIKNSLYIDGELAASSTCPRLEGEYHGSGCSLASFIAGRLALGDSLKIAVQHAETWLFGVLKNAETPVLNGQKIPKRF

IC50 [1]	SMILES	HPLC and LC-MS/MS of the enzymatic product [2]
768 µM	Cc1ncc(COP(=O)(O)O)c(C=O)c1O [PLP, 4-Formyl-5-hydroxy-6-methylpyridin-3-yl) methyl dihydrogen phosphate]	–
–	Cc1ncc(COP(=O)(O)O)c(N)n1 [HMP-P]	the mass spectrometry analysis all confirm that this single product is HMP-P
